Tested on: mouse embryos
Assay: Storage of mouse embryos in Solution 70/30 at 4 °C with or without sodium butyrate pretreatment
Assay type: cell-based
Description: Mouse embryos were incubated with either sodium butyrate or a Class II solute at either room temperature, 30 °C or 4 °C prior to storage in Solution 70/30 for up to five days at 4 °C. […] Sodium butyrate replaced sodium chloride at the same concentration in PBS.

## CCCC(=O)[O-].[Na+] [sodium butyrate]
Pretreatment with higher concentrations of sodium butyrate, 5 days of storage in Solution 70/30
  embryos hatched: up to 70%
Pretreatment with sodium butyrate, three days of storage in Solution 70/30 at 4 °C
  embryos to hatch: up to 80%

Reference: patent publication EP1018866B1, “COMPOSITIONS AND METHODS FOR THE PRESERVATION OF LIVING TISSUES” (Biostore New Zealand Limited, priority 1996, dated 1997)
